Source: ChEMBL document CHEMBL4007392, “Modulating Mineralocorticoid Receptor with Non-steroidal Antagonists. New Opportunities for the Development of Potent and Selective Ligands without Off-Target Side Effects” (J Med Chem, 2017)

Legend:
[1] = target: T1, Mineralocorticoid receptor (Homo sapiens, UniProt P08235); assay: Antagonist activity at Gal4-fused human MR LBD expressed in HEK293T cells assessed as inhibition of aldosterone-induced transactivation activity after 16 hrs by luciferase reporter gene assay; assay type: cell-based, HEK-293T
T1 sequence (P08235 whole entry): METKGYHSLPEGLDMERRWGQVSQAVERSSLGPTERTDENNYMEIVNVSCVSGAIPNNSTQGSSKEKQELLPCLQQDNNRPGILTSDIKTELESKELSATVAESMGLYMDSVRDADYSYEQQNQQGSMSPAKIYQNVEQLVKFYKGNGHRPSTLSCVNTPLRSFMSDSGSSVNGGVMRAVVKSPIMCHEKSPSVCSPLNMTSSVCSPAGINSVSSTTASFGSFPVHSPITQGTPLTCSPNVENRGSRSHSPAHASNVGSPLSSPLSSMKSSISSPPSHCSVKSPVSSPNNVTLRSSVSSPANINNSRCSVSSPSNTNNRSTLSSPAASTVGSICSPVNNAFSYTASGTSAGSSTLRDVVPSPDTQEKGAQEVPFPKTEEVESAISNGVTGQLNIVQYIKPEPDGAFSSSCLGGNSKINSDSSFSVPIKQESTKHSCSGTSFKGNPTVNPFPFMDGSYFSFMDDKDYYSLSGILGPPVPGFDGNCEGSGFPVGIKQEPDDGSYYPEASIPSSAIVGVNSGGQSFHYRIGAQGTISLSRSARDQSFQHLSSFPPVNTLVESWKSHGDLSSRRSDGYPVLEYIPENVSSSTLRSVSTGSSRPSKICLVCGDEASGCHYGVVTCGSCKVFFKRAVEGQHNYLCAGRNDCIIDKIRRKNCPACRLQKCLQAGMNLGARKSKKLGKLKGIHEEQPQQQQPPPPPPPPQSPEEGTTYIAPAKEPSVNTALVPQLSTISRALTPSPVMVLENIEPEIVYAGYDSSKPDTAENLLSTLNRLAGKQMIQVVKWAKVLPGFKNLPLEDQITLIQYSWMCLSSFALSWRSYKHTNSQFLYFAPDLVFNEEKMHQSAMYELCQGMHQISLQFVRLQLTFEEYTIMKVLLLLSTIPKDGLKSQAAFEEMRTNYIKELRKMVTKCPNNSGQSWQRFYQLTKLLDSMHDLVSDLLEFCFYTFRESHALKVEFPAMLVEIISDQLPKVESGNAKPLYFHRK

[2] = species: Homo sapiens; assay: Induction of improvement in urinary albumin-creatinine ratio in patient with diabetic nephropathy receiving ACE inhibitor or angiotensin receptor blocker at 7.5 to 20 mg/day during latter phase II trial; assay type: functional; set-up: scale not given: the % may be the effect or the level left
[3] = target: T2, Androgen receptor (Homo sapiens, UniProt P10275); assay: Antagonist activity at GAL4-fused human AR LBD (667 to 919 residues) expressed in CHO-K1 cells assessed as inhibition of dihydrotestosterone-induced transactivation activity after 5 to 6 hrs by luciferase reporter gene assay; assay type: cell-based
T2 sequence (P10275 whole entry): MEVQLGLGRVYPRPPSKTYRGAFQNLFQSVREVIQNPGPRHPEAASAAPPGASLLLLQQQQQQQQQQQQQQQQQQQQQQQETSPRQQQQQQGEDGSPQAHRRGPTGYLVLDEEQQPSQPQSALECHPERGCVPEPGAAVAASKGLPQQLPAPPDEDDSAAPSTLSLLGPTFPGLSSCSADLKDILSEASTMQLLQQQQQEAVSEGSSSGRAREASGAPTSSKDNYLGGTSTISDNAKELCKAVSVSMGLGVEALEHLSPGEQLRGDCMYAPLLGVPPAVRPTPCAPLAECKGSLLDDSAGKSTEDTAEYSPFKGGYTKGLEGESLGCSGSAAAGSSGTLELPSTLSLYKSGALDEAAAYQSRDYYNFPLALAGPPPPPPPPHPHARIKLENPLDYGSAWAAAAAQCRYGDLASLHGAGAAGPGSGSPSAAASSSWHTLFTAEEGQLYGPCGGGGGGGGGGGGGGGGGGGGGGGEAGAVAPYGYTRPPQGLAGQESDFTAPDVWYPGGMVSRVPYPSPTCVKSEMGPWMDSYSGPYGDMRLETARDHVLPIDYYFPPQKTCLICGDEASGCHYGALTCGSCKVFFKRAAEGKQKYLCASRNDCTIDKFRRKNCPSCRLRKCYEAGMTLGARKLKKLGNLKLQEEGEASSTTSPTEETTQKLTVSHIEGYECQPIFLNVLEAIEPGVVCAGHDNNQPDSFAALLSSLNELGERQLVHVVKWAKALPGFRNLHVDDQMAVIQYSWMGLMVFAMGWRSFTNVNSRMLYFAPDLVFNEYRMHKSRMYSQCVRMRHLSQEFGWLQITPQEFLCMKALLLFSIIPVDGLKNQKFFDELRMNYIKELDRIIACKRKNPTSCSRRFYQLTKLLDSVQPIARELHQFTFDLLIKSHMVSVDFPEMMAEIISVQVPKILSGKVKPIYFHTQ

[4] = target: T3, Glucocorticoid receptor (Homo sapiens, UniProt P04150); assay: Antagonist activity at GAL4-fused human GR LBD (443 to 777 residues) expressed in CHO-K1 cells assessed as inhibition of dexamethasone-induced transactivation activity after 5 to 6 hrs by luciferase reporter gene assay; assay type: cell-based
T3 sequence (P04150 whole entry): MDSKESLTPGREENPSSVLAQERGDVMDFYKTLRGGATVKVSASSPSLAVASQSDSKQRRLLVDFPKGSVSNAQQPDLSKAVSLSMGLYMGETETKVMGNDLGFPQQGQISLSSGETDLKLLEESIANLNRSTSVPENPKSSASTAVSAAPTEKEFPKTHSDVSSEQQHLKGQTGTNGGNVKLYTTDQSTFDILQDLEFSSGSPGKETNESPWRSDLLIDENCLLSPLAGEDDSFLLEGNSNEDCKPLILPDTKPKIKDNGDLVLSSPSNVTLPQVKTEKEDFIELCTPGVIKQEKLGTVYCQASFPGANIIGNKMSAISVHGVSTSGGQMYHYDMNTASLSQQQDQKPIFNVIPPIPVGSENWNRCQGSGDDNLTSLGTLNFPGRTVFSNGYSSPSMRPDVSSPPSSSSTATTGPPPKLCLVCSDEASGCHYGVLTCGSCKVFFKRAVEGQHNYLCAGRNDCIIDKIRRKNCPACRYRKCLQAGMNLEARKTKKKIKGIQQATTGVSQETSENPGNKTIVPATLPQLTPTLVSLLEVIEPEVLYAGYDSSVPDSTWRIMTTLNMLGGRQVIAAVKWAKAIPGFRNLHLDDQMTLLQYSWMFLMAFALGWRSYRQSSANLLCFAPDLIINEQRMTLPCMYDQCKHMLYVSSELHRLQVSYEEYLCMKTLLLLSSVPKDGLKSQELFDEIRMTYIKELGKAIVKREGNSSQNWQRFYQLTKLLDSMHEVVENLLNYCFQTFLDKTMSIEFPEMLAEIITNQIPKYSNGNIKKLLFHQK

CCOc1ncc(C)c2c1[C@H](c1ccc(C#N)cc1OC)C(C(N)=O)=C(C)N2 [FINERENONE]
IC50 [1]: 0.058 µM | Activity [2]: 21 - 38% | IC50 [3]: ≥ 10 µM | IC50 [4]: ≥ 10 µM
